In patent publication US20250221410A1, “SUBSTITUTED 2-C-AZINES AND SALTS THEREOF, AND USE THEREOF AS HERBICIDAL ACTIVE SUBSTANCES” (BAYER AKTIENGESELLSCHAFT, priority 2022, published 2025):

Key:
[1] = system: ABUTH: Abutilon theophrasti; assay: Post-emergence herbicidal efficacy at 1280 g/ha, ABUTH; assay type: in vivo; settings: rated visually after about 3 weeks vs untreated controls, 100% = plants have died, 0% = like control plants
How it was run: (§1)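 Plants treated 2–3 weeks post-sowing, one-leaf stage, foliar spray of WP or EC preparations with 0.5% additive at a water rate equivalent to 600 L/ha. Kept under optimum greenhouse conditions ~3 weeks, then scored visually on a 0–100% scale.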

POLCO [2] = assay: Post-emergence herbicidal efficacy at 80 g/ha, POLCO; assay type: in vivo, Polygonum convolvulus; settings: visual rating about 3 weeks after treatment vs untreated controls
Protocol: (§2) Seeds of monocotyledonous and dicotyledonous weeds and crop plants were placed in sandy loam in plastic or organic planting pots, covered with soil and cultivated in a greenhouse under controlled growth conditions. 2 to 3 weeks after sowing, the test plants were treated at the one-leaf stage. The compounds of the invention, formulated in the form of wettable powders (WP) or as emulsion concentrates (EC), were then sprayed onto the green parts of the plants as aqueous suspension or emulsion with addition of 0.5% additive at a water application rate of 600 l/ha (converted). After the test plants had been kept in the greenhouse under optimum growth conditions for about 3 weeks, the activity of the preparations was rated visually in comparison to untreated controls. For example, 100% activity=the plants have died, 0% activity=like control plants. Tables B1 to B10 below show the effects of selected compounds of the general formula (I) according to Table 1 on various harmful plants and an application rate corresponding to 80 g/ha, which were obtained by the experimental procedure mentioned above.

[3] = system: MATIN: Matricaria inodora; assay: Pre-emergence herbicide efficacy at 80 g/ha, MATIN; assay type: in vivo; settings: scored visually after about 3 weeks
How it was run: (§3)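 Percent activity (0% = as controls, 100% = plants dead) was read visually around 3 weeks post-treatment. Treatment: covering soil of sown pots sprayed with compound suspension or emulsion, 0.5% additive, water rate equal to 600 l/ha; pots then held in greenhouse.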

SETVI: Setaria viridis [4] = assay: Post-emergence herbicidal efficacy at 1280 g/ha, SETVI; assay type: in vivo; settings: visual rating about 3 weeks after treatment vs untreated controls
How it was run: as §1

[5] = system: ABUTH: Abutilon theophrasti; assay: Pre-emergence herbicide efficacy at 80 g/ha, ABUTH; assay type: in vivo; settings: scored visually after about 3 weeks
How it was run: as §3

[6] = system: ECHCG: Echinochloa crus-galli; assay: Pre-emergence herbicide efficacy at 80 g/ha, ECHCG; assay type: in vivo; settings: scored visually after about 3 weeks
From the text: (§4) Seeds of monocotyledonous and dicotyledonous weed plants and crop plants were placed in plastic or organic planting pots and covered with soil. The compounds of the invention, formulated in the form of wettable powders (WP) or as emulsion concentrates (EC), were then applied to the surface of the covering soil as aqueous suspension or emulsion with addition of 0.5% additive at a water application rate equivalent to 600 l/ha. After the treatment, the pots were placed in a greenhouse and kept under good growth conditions for the test plants. After about 3 weeks, the efficacy of the preparations was scored visually in comparison with untreated controls as percentages. For example, 100% activity=the plants have died, 0% activity=like control plants. Tables D1 to D12 below show the effects of selected compounds of the general formula (I) according to Table 1 on various harmful plants and an application rate corresponding to 80 g/ha, which were obtained by the experimental procedure mentioned above.

[7] = system: AMARE: Amaranthus retroflexus; assay: Pre-emergence herbicide efficacy at 80 g/ha, AMARE; assay type: in vivo; settings: scored visually after about 3 weeks
How it was run: as §3

SETVI: Setaria viridis [8] = assay: Pre-emergence herbicide efficacy at 80 g/ha, SETVI; assay type: in vivo; settings: scored visually after about 3 weeks
How it was run: as §3

VERPE: Veronica persica [9] = assay: Pre-emergence herbicide efficacy at 80 g/ha, VERPE; assay type: in vivo; settings: scored visually after about 3 weeks
How it was run: as §3

VERPE: Veronica persica [10] = assay: Post-emergence herbicidal efficacy at 1280 g/ha, VERPE; assay type: in vivo; settings: visual rating about 3 weeks after treatment vs untreated controls
How it was run: as §1

KCHSC: Kochia scoparia [11] = assay: Pre-emergence herbicide efficacy at 1280 g/ha, KCHSC; assay type: in vivo; settings: visual scoring after about 3 weeks vs untreated controls
How it was run: (§5)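 Compound applied pre-emergence in WP or EC form to the covering soil over sown seeds, in aqueous spray with 0.5% additive (600 L/ha water). After greenhouse culture for about 3 weeks, damage is rated visually from 0% (as control) to 100% (plants dead).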

VIOTR: Viola tricolor = assay: Pre-emergence herbicide efficacy at 80 g/ha, VIOTR; assay type: in vivo; settings: scored visually after about 3 weeks
From the text: as §4

[12] = system: DIGSA: Digitaria sanguinalis; assay: Post-emergence herbicidal efficacy at 1280 g/ha, DIGSA; assay type: in vivo; settings: rated visually after about 3 weeks vs untreated controls, 100% = plants have died, 0% = like control plants
How it was run: as §1

VERPE: Veronica persica [13] = assay: Pre-emergence herbicide efficacy at 1280 g/ha, VERPE; assay type: in vivo; settings: visual scoring vs untreated controls
How it was run: as §5

POLCO [14] = assay: Pre-emergence herbicide efficacy at 80 g/ha, POLCO; assay type: in vivo; settings: Polygonum convolvulus, scored visually after about 3 weeks
How it was run: as §3

[15] = system: DIGSA: Digitaria sanguinalis; assay: Pre-emergence herbicide efficacy at 1280 g/ha, DIGSA; assay type: in vivo; settings: visual scoring after about 3 weeks vs untreated controls
How it was run: as §5

[16] = system: MATIN: Matricaria inodora; assay: Pre-emergence herbicide efficacy at 1280 g/ha, MATIN; assay type: in vivo; settings: visual scoring after about 3 weeks vs untreated controls
How it was run: as §5

KCHSC: Kochia scoparia [17] = assay: Pre-emergence herbicide efficacy at 80 g/ha, KCHSC; assay type: in vivo; settings: scored visually after about 3 weeks
From the text: as §4

[18] = system: AMARE: Amaranthus retroflexus; assay: Pre-emergence herbicide efficacy at 1280 g/ha, AMARE; assay type: in vivo; settings: visual scoring after about 3 weeks vs untreated controls
How it was run: as §5

[19] = system: ALOMY: Alopecurus myosuroides; assay: Pre-emergence herbicide efficacy at 1280 g/ha, ALOMY; assay type: in vivo; settings: visual scoring after about 3 weeks vs untreated controls
How it was run: as §5

[20] = system: AMARE: Amaranthus retroflexus; assay: Post-emergence herbicidal efficacy at 1280 g/ha, AMARE; assay type: in vivo; settings: rated visually after about 3 weeks vs untreated controls, 100% = plants have died, 0% = like control plants
How it was run: as §1

[21] = system: AMARE: Amaranthus retroflexus; assay: Post-emergence herbicidal efficacy at 80 g/ha, AMARE; assay type: in vivo; settings: visual rating about 3 weeks after treatment vs untreated controls
How it was run: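 One-leaf-stage weeds in sandy loam were treated with aqueous suspensions or emulsions (0.5% additive, 600 l/ha) and held in the greenhouse for about 3 weeks before visual rating on a 0–100% scale versus untreated controls.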

KCHSC: Kochia scoparia [22] = assay: Post-emergence herbicidal efficacy at 80 g/ha, KCHSC; assay type: in vivo; settings: visual rating about 3 weeks after treatment vs untreated controls
Protocol: as §2

SMILES | Post-emergence efficacy at 1280 g/ha against ABUTH in % [1] | Pre-emergence efficacy against MATIN in % [3] | Post-emergence efficacy against SETVI (SETVI: Setaria viridis [4]) | Pre-emergence efficacy against ABUTH in % [5] | Pre-emergence efficacy against ECHCG in % [6] | Pre-emergence efficacy against AMARE in % [7] | Pre-emergence efficacy against SETVI in % (SETVI: Setaria viridis [8]) | Pre-emergence efficacy against VERPE in % (VERPE: Veronica persica [9]) | Post-emergence efficacy against VERPE (VERPE: Veronica persica [10]) | Pre-emergence efficacy against KCHSC (KCHSC: Kochia scoparia [11]) | Pre-emergence efficacy against VIOTR in % (VIOTR: Viola tricolor) | Post-emergence efficacy at 1280 g/ha against DIGSA in % [12] | Pre-emergence efficacy against VERPE in % (VERPE: Veronica persica [13]) | Pre-emergence efficacy against POLCO in % (POLCO [14]) | Pre-emergence efficacy against DIGSA [15] | Pre-emergence efficacy against MATIN [16] | Pre-emergence efficacy against KCHSC in % (KCHSC: Kochia scoparia [17]) | Pre-emergence efficacy against AMARE [18] | Pre-emergence efficacy against ALOMY [19] | Post-emergence efficacy at 1280 g/ha against AMARE in % [20] | also measured
Fc1cnc(Oc2cccc(Br)c2Cc2ncc(Cl)cn2)nc1 [Example 1-54] | 100% | 90% | 100% | 100% | 100% | 100% | 100% | 90% | 100% | 100% | 100% | 90% | 100% | 80% | 100% | 100% | 100% | 100% | 90% | 100% | Post-emergence efficacy against POLCO (POLCO [2]): 80%; Post-emergence efficacy against AMARE [21]: 100%
Clc1cnc(Cc2c(Cl)cccc2Oc2ncc(Cl)cn2)nc1 [Example 1-56] | 90% | 100% | 90% | 100% | 80% | 100% | 100% | 90% | 90% | 100% | 100% | 90% | 100% | 90% | 100% | 100% | 90% | 100% | 100% | 90% | Post-emergence efficacy against POLCO (POLCO [2]): 80%; Post-emergence efficacy against AMARE [21]: 100%; Post-emergence efficacy against KCHSC (KCHSC: Kochia scoparia [22]): 80%
N#Cc1cccc(Oc2ncc(F)cn2)c1Cc1ncc(Cl)cn1 [Example 1-59] | 100% | 100% | 90% | 100% | 100% | 100% | 100% | 90% | 100% | 100% | 100% | 100% | 100% | 90% | 100% | 100% | 100% | 100% | 100% | 100% | Post-emergence efficacy against AMARE [21]: 100%; Post-emergence efficacy against KCHSC (KCHSC: Kochia scoparia [22]): 90%
FC(F)c1cc(-c2ccccc2Cc2ncc(Cl)cn2)on1 [Example 1-133] | 100% | 80% | 100% | 100% | 80% | 100% | 100% | 90% | 100% | 100% | 80% | 100% | 100% | 80% | 100% | 100% | 100% | 100% | 100% | 100% | Post-emergence efficacy against POLCO (POLCO [2]): 100%; Post-emergence efficacy against AMARE [21]: 100%; Post-emergence efficacy against KCHSC (KCHSC: Kochia scoparia [22]): 100%
